Reference: patent US20100076072A1, “COMPOSITIONS AND METHODS OF VITAMIN E ADMINISTRATION” (NORTHWESTERN UNIVERSITY, priority 2008, published 2010)

What was measured:
[1] = tested on: VCAM-1-dependent spleen cell migration across mHEVa endothelial cells; assay: In vitro Transwell migration assay; type: cell-based, mouse; conditions: for Migration after pretreatment of leukocytes with tocopherol and washing: leukocytes pretreated, washed; for Lymphocyte migration in transwell migration assay: tocopherol left in culture, 24 hours after addition of spleen cells, 80 μM α / 5 μM γ
Procedure: In vitro Transwell migration assay. mHEVa cells were grown to confluence on Transwells with 12 μm pores (Costar Cambridge, Mass.). The mHEVc cell monolayers block nonspecific accumulation of red blood cells in the lower transwell chamber and block FITC-albumin diffusion. Spleen cell migration is stimulated by mHEV cell secretion of the chemokine MCP-1. The number of lymphocytes that migrate is linear from 0-24 hrs followed by a plateau. Spleen cells that migrate are greater than 95% lymphocytes and the percentage of cells that migrate is consistent with other in vitro models with endothelial cell lines or cytokine-activated microvascular endothelial cells.
In this transendothelial migration assay used, the migrated spleen cells are >95% lymphocytes and the B cells and T cells migrate in response to MCP-1. […]

[2] = tested on: adhesion molecule expression; conditions: atherosclerosis models; cited from earlier work
[3] = tested on: OVA-challenged mice (experimental asthma); assay: OVA experimental asthma: leukocyte infiltration into bronchoalveolar lavage (BAL); type: in vivo, mouse
Procedure: Reagents. Ethoxylated castor oil was composed of polyethoxylated castor oil (PEG35), 20% ethanol, and 1% benzyl alcohol. […] The purified tocopherols were diluted in ethoxylated castor oil to indicated concentrations for the in vivo studies. The purified tocopherols were diluted in DMSO (0.2%) for the in vitro studies. OVA administration. BALB/c female mice were maintained on chow diet. The mice were sensitized by intraperitoneal injection (200 μl) of OVA grade V (10 μg)/alum or saline/alum on days 0 and 7 (SEE FIG. 1). On days 13-20, these mice received daily subcutaneous injections (50 μl) of 2 μg natural tocopherol/ethoxylated castor oil or ethoxylated castor oil alone. This daily 2 μg of natural tocopherol is equivalent to the amount of tocopherol that mice consume from diets (4 g diet consumed/day×500 mg α-tocopherol/kg diet) that are commonly used to elevate tissue tocopherols in mice. The mice recieved 2 μg d-α-tocopherol, 2 μg d-γ-tocopherol, 2 μg d-α-tocopherol plus 2 μg d-γ-tocopherol or the vehicle exthoxylated castor oil. […] During the OVA responses in mice, tocopherol radicals are recycled by endogenously synthesized ascorbic acid. On days 16, 18, and 20, the mice were challenged with intranasal OVA fraction VI (150 μg) in saline or saline alone. On day 21, the mice were analyzed for airway responsiveness followed by collection of tissues.
(§1) Tissue collection. After airway function analysis, mice were weighed, sacrificed and the lungs flushed twice with 0.8 ml PBS. The cells in this bronchoalveolar lavage (BAL) were cytospun onto slides, DiffQuik (Baxter) stained, and differential cell counts were performed. BAL supernatants were snap frozen and stored at −80° C. for cytokine analysis. Lungs were perfused free of blood and one quarter of the lung was tied off, collected, weighed, snap frozen, and stored at −80° C. for tocopherol analysis and PGE2 analysis. One quarter of the lung was collected and placed in RNA later for analysis of mRNA for eotaxin expression. The other half of the lung was injected with 40% freezing compound, collected and stored at −80° C. for tissue sections and histological staining Frozen sections were prepared rather than paraffin sections since the anti-mouse VCAM-1 antibodies only bind to VCAM-1 in frozen sections.
(§2) Mice were sensitized with intraperitoneal injection of OVA grade V (10 μg)/alum or saline/alum on days 0 and 7 (SEE FIG. 2). On days 13-20, these mice received daily subcutaneous injections (500) of 2 μg natural tocopherol/ethoxylated castor oil (33) or ethoxylated castor oil alone. This daily 2 μg of natural tocopherol is equivalent to the amount of tocopherol that mice consume from diets (4 g diet consumed/day×500 mg a tocopherol/kg diet) that are commonly used to elevate tissue tocopherols in mice. On days 16, 18, and 20 the mice were challenged with intranasal OVA fraction VI (150 μg) in saline or saline alone. On day 21, the mice were analyzed for airway responsiveness and then tissues were collected. Lung responsiveness was determined using methacholine and whole-body plethysmography as previously described. This method of measuring lung function has the advantage of analysis of larger numbers of animals, as compared to the few animals that can be analyzed using invasive measures of lung function. The whole-body plethysmography correlates well with airway function when performed under continuous flow conditions. This measurement under continuous flow is critical as it avoids the complication of airway conditioning that occurs if these measurements are incorrectly made under closed conditions. After airway analysis, mice were sacrificed and tissues collected.

[4] = tested on: endotoxin-stimulated neutrophil infiltration into the lung; conditions: other animal models; cited from earlier work
[5] = tested on: lung; conditions: in vivo; cited from earlier work
[6] = target: T1, PKCα (Mus musculus, UniProt P20444); assay: VCAM-1 activation of endothelial cell PKCα (PKCα-Thr638 phosphorylation, western blot); type: cell-based; conditions: overnight 80 μM α-tocopherol / 2 μM γ-tocopherol; anti-VCAM-1 stimulation 10 minutes
T1 construct: endogenous in cells; host or cells: endothelial cells (mHEVa named)
Procedure: Endothelial cells were pretreated overnight with physiological concentrations of tocopherols (80 μM α-tocopherol and/or 2 μM γ-tocopherol). Endothelial cell VCAM-1 was stimulated with anti-VCAM-1 and a secondary antibody for 10 minutes. Phosphorylation of PKCα-Thr^638 was examined by western blot, developed using an ECL kit, and analyzed by densitometry as in the methods section. These concentrations of α-tocopherol (80 μM) and γ-tocopherol (2 μM) were optimal for their inhibition or enhancement, respectively, of VCAM-1 activation of PKCα (data not shown). Shown are representative blots and data from 5 experiments. *, p<0.05 compared to nonstimulated groups. **, p<0.05 compared to nonstimulated groups and p<0.07 compared to DMSO-treated/anti-VCAM-stimulated group.

[7] = tested on: delayed-type-hypersensitivity responses; conditions: in vivo; cited from earlier work
[8] = tested on: VCAM-1-dependent lymphocyte migration across mHEVa endothelial cells; assay: Transendothelial migration assay with physiological laminar flow (parallel plate flow chamber); type: cell-based, mouse; conditions: endothelial cells pretreated overnight, washed; 15 minutes, 2 dynes/cm^2
Procedure: In vitro cell association and migration assays with laminar flow. The parallel plate flow chamber was used to examine migration under conditions of laminar flow. Endothelial cells were grown to confluence on slides and then the slide was placed in a parallel plate flow chamber. In vivo, in the absence of inflammation, the rapid fluid dynamics of the blood result in blood cells located midstream of the vascular flow. However, during inflammation, there is a change of fluid dynamics. […]
Therefore, spleen cells (3×10^6) were added to the flow chamber (35 cm^2) at 2 dynes/cm^2. […] To initiate spleen cell contact with the endothelial cells in vitro, the spleen cells were allowed to settle in the chamber as monitored by microscopy and then 2 dynes/cm^2 was applied for the 15 minute laminar flow assay. […] To quantify migrated spleen cells at 15 minutes, phase contrast microscopy was used to count migrated cells that are phase dark. Under laminar flow, spleen cell migration was detected at 15 minutes. The number of spleen cells that were associated but not migrated (phase light cells) at 15 minutes is low since in 15 minutes, the majority of non-migrating cells roll off the monolayer of endothelial cells as determined by microscopy. […]

[9] = tested on: OVA-challenged mice (experimental asthma); assay: Airway hyperresponsiveness to methacholine, whole-body plethysmography (Penh); type: in vivo, mouse; conditions: for Airway hyperresponsiveness (AHR), enhanced pause (Penh): OVA-challenged BALB/c mice, methacholine dose curve, day 21
Procedure: Airway Hyperresponsiveness. Lung responsiveness was determined using methacholine as previously described. On day 21, the mice were analyzed for airway responsiveness by whole body plethysmology. The whole-body plethysmography on conscious, unrestrained mice was performed under continuous airflow conditions (Buxco, Troy, N.Y.). Continuous airflow was used to avoid the influence of conditioning on airway functions, causing aberrant measurements. Enhanced pause (Penh) values were calculated from the flow-derived whole-body plethysmography measurements done with continuous air flow. Penh is a unitless indicator of changes in airway resistance and correlates well with specific airway resistance. Baseline readings were averaged for 5 minutes. Saline or methacholine was nebulized into the airflow for 2-minute periods and the average Penh value calculated for this and the subsequent 8 minutes.
as §2, with “This measurement under continuous flow is critical as it avoids the complication of airway conditioning that occurs if these measurements are incorrectly made under closed conditions. After airway analysis, mice were sacrificed and tissues collected.” left out

[10] = Tocopherol levels in lung tissue and plasma (HPLC, electrochemical detector); type: in vivo, mouse; conditions: for Lung tissue level of the other tocopherol (α vs γ) / Lung tissue level of the administered tocopherol: mice; for Lung tissue level of the administered tocopherol: day 21, daily s.c. 2 μg tocopherol days 13-20
Procedure: Body weight and tocopherol levels in these mice were examined. […] Lungs were perfused to remove the blood, homogenized in ethanol and extracted with hexane. Tocopherol concentrations were determined by HPLC with an electrochemical detector.

[11] = Body and lung weights on day 21; type: in vivo, mouse; conditions: mice, day 21, daily s.c. tocopherol days 13-20
Procedure: as §1
Body weight and tocopherol levels in these mice were examined. […] Consistent with this, the body weight and lung weights of the mice studied during the development of embodiments of the present invention were unaltered by the α-tocopherol or γ-tocopherol treatments (SEE FIG. 3). Lungs were perfused to remove the blood, homogenized in ethanol and extracted with hexane. Tocopherol concentrations were determined by HPLC with an electrochemical detector. The lung tissue and plasma levels of tocopherols were elevated (SEE FIG. 4). […] The level of γ-tocopherol in the lung tissue of γ-tocopherol-treated mice was 10 fold lower than lung tissue α-tocopherol in the α-tocopherol-treated mice. This 10 fold difference in α-tocopherol and γ-tocopherol levels in the lung tissues may be caused preferential transfer of α-tocopherol in the liver by a TTP (20, 24), although the present invention is not limited to any particular mechanism of action and an understanding of the mechanism of action is not necessary to practice the present invention. […] Administration of tocopherols also had no effect on the low levels of δ-tocopherol in the lung (SEE FIG. 4A).

[12] = tested on: OVA-challenged mice (experimental asthma); assay: OVA experimental asthma: lung tissue eosinophils (anti-major basic protein immunolabeling); type: in vivo, mouse; conditions: daily s.c. 2 μg tocopherol days 13-20, day 21
[13] = tested on: arthritis; assay: Arthritis
[14] = in vivo; cited from earlier work
[15] = OVA-challenged BALB/c mice, daily s.c. 2 μg tocopherol days 13-20, day 21, vs OVA-challenged vehicle
[16] = OVA-challenged mice, co-treatment with α-tocopherol

| VCAM-1 activation of PKCα (phosphorylation of PKCα-Thr638) [6] | Lung tissue level of the other tocopherol (α vs γ) ([10]; day 21) | Lung tissue level of the administered tocopherol [10] | Lung weights [11] | Compound | Migration after pretreatment of leukocytes with tocopherol and washing [1] | Lymphocyte migration in transwell migration assay [1] | OVA-stimulated infiltration of eosinophils into the BAL [3, 15] | OVA-stimulated infiltration of lymphocytes into the BAL [3, 15] | OVA-stimulated infiltration of monocytes into the BAL [3, 15] | Airway hyperresponsiveness (AHR), enhanced pause (Penh) [9] | Body weight [11] | Eosinophils in the lung tissue [12] | other results |
| --- | --- | --- | --- | --- | --- | --- | --- | --- | --- | --- | --- | --- | --- |
| inhibition | did not alter | elevated levels | unaltered | Cc1c(C)c2c(c(C)c1O)CC[C@@](C)(CCC[C@H](C)CCC[C@H](C)CCCC(C)C)O2 [α-tocopherol, d-α-tocopherol, reference compound] | no effect on migration | inhibited lymphocyte migration | significantly reduced | significantly reduced | significantly reduced | completely ablated | unaltered | reduced | Adhesion molecule expression [2]: inhibit; Endotoxin-stimulated neutrophil infiltration into the lung [4]: reduces; High oxidation by ozone and smoke in the lung [5]: reduces; Delayed-type-hypersensitivity responses [7]: reduces; VCAM-1-dependent lymphocyte migration under laminar flow [8]: inhibited; Increase in α-tocopherol in lungs of α-tocopherol-treated mice ([10]; day 21): five-fold increase |
| enhancement | did not alter | elevated levels | unaltered | Cc1c(O)cc2c(c1C)O[C@](C)(CCC[C@H](C)CCC[C@H](C)CCCC(C)C)CC2 [γ-tocopherol, d-γ-tocopherol] | no effect on migration | significantly increases lymphocyte migration | significantly increased | significantly increased | significantly increased | elevated | unaltered | elevated | Effect on α-tocopherol inhibition of spleen cell migration ([1]; 5 μM γ-tocopherol with α-tocopherol (80 μM)-treated cells): ablated; Lymphocyte migration after pretreatment of endothelial cells ([1]; endothelial cells pretreated, washed five times, transwell assay): elevated lymphocyte migration; Effect on arthritis [13]: exacerbatory effect; OVA-stimulated infiltration of neutrophils into the BAL [3, 15]: significantly increased; Effect on the benefit of α-tocopherol (BAL leukocyte infiltration) [3, 16]: blocked the benefit of α-tocopherol; Retention in tissues relative to α-tocopherol [14]: 10%; Effect on α-tocopherol inhibition of AHR [9, 16]: antagonized the inhibition by α-tocopherol; Lung tissue γ-tocopherol in γ-tocopherol-treated mice relative to lung tissue α-tocopherol in α-tocopherol-treated mice ([10]; day 21): 10 fold lower |
